Laboratory results: PMC10418759, “New Highly Selective BACE1 Inhibitors and Their Effects on Dendritic Spine Density In Vivo” (International Journal of Molecular Sciences, 2023)

Assays:
[1] = biological target: T1, recombinant human BACE1 (Homo sapiens, UniProt P56817); test: BACE1 biochemical enzymatic assay (HTRF, APP-derived Swedish-mutation peptide substrate); settings: HTRF, 2 h at 25 °C, APP-derived peptide substrate
T1 construct: purchased R&D Systems
Method: (§1) BACE1 enzymatic activity was determined in a homogeneous time-resolved fluorescence (HTRF) assay, and BACE2 enzymatic activity was determined in an enzyme-linked immunosorbent assay (ELISA)-based assay using an APP-derived peptide that contains the K670N + M671L (Swedish) double mutation of the APP β secretase cleavage site as a substrate. The recombinant human BACE1 (R&D Systems, MN, USA) was incubated (2 h at 25 °C) with the substrate and the inhibitor (9 or 10 concentrations at 1/5 steps from 10 μM). Fluorescence intensity was measured (excitation wavelength: 320 nm, measuring wavelength: 620 nm and 665 nm) using RUBYstar (BMG LABTECH, Ortenberg, Germany). […] The inhibitory potential of the compounds on the enzymatic activity of BACE1 and BACE2 was determined by performing concentration–response curves.

[2] = test system: recombinant human BACE1; test: as above; settings: selectivity for BACE1 over BACE2 from IC50 values
Method: as §1

[3] = biological target: T2, recombinant human BACE2 ectodomain (Homo sapiens, UniProt Q9Y5Z0); test: BACE2 biochemical enzymatic assay (ELISA-based, APP-derived Swedish-mutation peptide substrate); settings: 1 h at 37 °C
T2 sequence (Q9Y5Z0 63-473 limits assumed): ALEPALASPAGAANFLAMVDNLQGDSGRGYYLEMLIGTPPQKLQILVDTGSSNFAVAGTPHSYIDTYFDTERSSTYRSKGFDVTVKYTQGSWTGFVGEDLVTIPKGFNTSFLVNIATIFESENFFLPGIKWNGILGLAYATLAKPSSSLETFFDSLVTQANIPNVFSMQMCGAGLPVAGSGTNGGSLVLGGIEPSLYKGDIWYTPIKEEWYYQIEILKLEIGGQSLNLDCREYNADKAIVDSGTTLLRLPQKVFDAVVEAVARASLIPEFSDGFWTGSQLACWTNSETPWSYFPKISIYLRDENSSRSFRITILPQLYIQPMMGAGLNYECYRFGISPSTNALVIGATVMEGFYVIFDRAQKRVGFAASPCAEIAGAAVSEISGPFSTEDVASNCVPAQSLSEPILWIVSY
Method: BACE1 enzymatic activity was determined in a homogeneous time-resolved fluorescence (HTRF) assay, and BACE2 enzymatic activity was determined in an enzyme-linked immunosorbent assay (ELISA)-based assay using an APP-derived peptide that contains the K670N + M671L (Swedish) double mutation of the APP β secretase cleavage site as a substrate. The recombinant human BACE1 (R&D Systems, MN, USA) was incubated (2 h at 25 °C) with the substrate and the inhibitor (9 or 10 concentrations at 1/5 steps from 10 μM). Fluorescence intensity was measured (excitation wavelength: 320 nm, measuring wavelength: 620 nm and 665 nm) using RUBYstar (BMG LABTECH, Ortenberg, Germany). The recombinant human BACE2 ectodomain was incubated (1 h at 37 °C) with the substrate and the inhibitor (10 concentrations at 1/4 steps from 25 μM). The count of chemi-luminescence in each well was measured using ARVOTM MX 1420 Multilabel Counter (PerkinElmer, Shelton, CT, USA). The inhibitory potential of the compounds on the enzymatic activity of BACE1 and BACE2 was determined by performing concentration–response curves.

[4] = test system: dendritic spines of layer V pyramidal neurons, somatosensory cortex; test: Longitudinal in vivo two-photon dendritic spine imaging in GFP-M mice; set-up: species or system mouse; settings: inhibitor food pellets for 21 days, compared to vehicle
[5] = test system: soluble Seizure protein 6 (sSez6); test: Soluble Sez6 levels in the mouse brain (Western blot); format: in vivo; settings: C57BL/6 mice, food pellets with inhibitor for one week, soluble brain fraction; level reduced to % of vehicle
From the text: C57BL/6 mice (CLEA Japan Inc., Tokyo, Japan) were fed with food pellets containing 0.02% elenbecestat, 0.0125% Shionogi compound 1, and 0.025% Shionogi compound 2 for one week (performed at AAALAC compatible facilities). Mouse cerebral hemispheres were removed and frozen immediately with liquid nitrogen. The frozen cerebral hemispheres were transferred to a homogenized tube containing ceramic beads in an 8-fold volume of the weight of an extraction buffer (containing 0.4% DEA (diethylamine), 50 mmol/L NaCl, completed with protease inhibitor (Roche, Basel, Switzerland)) and incubated on ice for 20 min. […] The brain Aβ40 was measured using Human/Rat Amyloid beta 40 ELISA Kit (FUJIFILM Wako Pure Chemical Corporation, Osaka, Japan). […]
The brain samples were heated at 95 °C in 1% SDS sample buffer with 100 mM DTT for 5 min, separated by SDS-PAGE on 4–20% precast polyacrylamide gels (Biorad, Feldkirchen, Germany), and transferred to PVDF membranes (Biorad, Feldkirchen, Germany). […] After final washes with PBST, the membranes were incubated with ECL prime for a few minutes, and signal was detected with LAS-3000 (FUJIFILM Wako Pure Chemical Corporation, Osaka, Japan). Densitometry quantification of Western blot signal was conducted using Multi Gauge V3.1 software (FUJIFILM Wako Pure Chemical Corporation, Osaka, Japan).

[6] = test system: brain Aβ40; test: Brain Aβ levels in mice fed inhibitor pellets (Aβ40 ELISA, soluble brain fraction); format: in vivo, mouse; settings: C57BL/6 mice, food pellets with inhibitor for one week, level reduced to % of vehicle
From the text: C57BL/6 mice (CLEA Japan Inc., Tokyo, Japan) were fed with food pellets containing 0.02% elenbecestat, 0.0125% Shionogi compound 1, and 0.025% Shionogi compound 2 for one week (performed at AAALAC compatible facilities). Mouse cerebral hemispheres were removed and frozen immediately with liquid nitrogen. The frozen cerebral hemispheres were transferred to a homogenized tube containing ceramic beads in an 8-fold volume of the weight of an extraction buffer (containing 0.4% DEA (diethylamine), 50 mmol/L NaCl, completed with protease inhibitor (Roche, Basel, Switzerland)) and incubated on ice for 20 min. Thereafter, the hemispheres were homogenized using MP BIO FastPrep-24 (MP-Biomedicals, Irvine, CA, USA) with Lysing matrix D 1.4 mm ceramic beads (20 s at 6 m/s). After spinning for 1 min, the supernatant was transferred to a centrifugation tube and centrifuged at 221,000× g, 4 °C, for 50 min. After centrifugation, the supernatant was used for measuring the brain Aβ40. The brain Aβ40 was measured using Human/Rat Amyloid beta 40 ELISA Kit (FUJIFILM Wako Pure Chemical Corporation, Osaka, Japan). The assay procedure was conducted according to instructions.

[7] = test system: cognition; settings: in vivo; cited from earlier work
[8] = test system: dendritic spines of layer V pyramidal neurons, somatosensory cortex; settings: mouse, in vivo; cited from earlier work

T1 sequence (P56817 46-501): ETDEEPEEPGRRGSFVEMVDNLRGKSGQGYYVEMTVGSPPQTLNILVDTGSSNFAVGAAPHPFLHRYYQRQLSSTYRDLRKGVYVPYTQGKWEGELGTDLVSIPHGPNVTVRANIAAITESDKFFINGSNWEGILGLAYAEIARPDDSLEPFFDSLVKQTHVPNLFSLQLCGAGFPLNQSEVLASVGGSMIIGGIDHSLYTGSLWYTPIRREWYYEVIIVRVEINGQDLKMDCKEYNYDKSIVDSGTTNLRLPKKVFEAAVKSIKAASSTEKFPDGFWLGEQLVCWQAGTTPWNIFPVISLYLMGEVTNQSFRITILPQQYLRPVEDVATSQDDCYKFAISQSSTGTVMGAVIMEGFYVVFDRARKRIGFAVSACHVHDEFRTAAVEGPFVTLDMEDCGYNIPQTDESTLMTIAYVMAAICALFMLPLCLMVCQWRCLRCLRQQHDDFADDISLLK

SMILES	IC50 [1] [nM]	BACE1/BACE2 (fold) [2] [fold]	IC50 [3] [nM]	Dendritic spine density [4]	Brain sSez6 level compared to vehicle [5] [%]	Brain Aβ level compared to vehicle [6] [%]	Cognitive worsening in the clinic [7]	Dendritic spine plasticity in the cerebral cortex [8]
C[C@H]1OC[C@]2(c3cc(NC(=O)c4cnc(C(F)F)cn4)ccc3F)N=C(N)SC[C@H]12 [Elenbecestat, elenbecestat]	3.9	12	46	do not alter dendritic spine density	27	46	did not show cognitive worsening	
CN1C(=N)N[C@](C)(c2cc(NC(=O)c3ccc(F)cn3)ccc2F)CS1(=O)=O [verubecesat, verubecestat]								significant decrease in dendritic spine plasticity
